{
  "source": "ChEMBL document CHEMBL1201862",
  "about": "“PubChem BioAssay data set” (2004)",
  "key": {"[1]": {"biological_target": "T1, Corticotropin-releasing factor receptor 2/Corticotropin-releasing factor-binding protein (Homo sapiens, UniProt P24387+Q13324)", "T1 sequence (Q13324 whole entry)": "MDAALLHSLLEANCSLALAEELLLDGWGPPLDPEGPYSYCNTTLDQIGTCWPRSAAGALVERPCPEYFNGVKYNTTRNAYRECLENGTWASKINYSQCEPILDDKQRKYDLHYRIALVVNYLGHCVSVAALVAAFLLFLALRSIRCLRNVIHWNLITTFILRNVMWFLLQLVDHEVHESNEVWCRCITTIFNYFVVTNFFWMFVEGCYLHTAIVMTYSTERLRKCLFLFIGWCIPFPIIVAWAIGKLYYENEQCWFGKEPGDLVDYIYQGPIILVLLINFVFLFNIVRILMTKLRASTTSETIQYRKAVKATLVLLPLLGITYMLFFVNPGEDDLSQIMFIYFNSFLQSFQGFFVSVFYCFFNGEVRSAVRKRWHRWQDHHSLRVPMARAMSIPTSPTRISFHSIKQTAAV", "T1 sequence (P24387 whole entry)": "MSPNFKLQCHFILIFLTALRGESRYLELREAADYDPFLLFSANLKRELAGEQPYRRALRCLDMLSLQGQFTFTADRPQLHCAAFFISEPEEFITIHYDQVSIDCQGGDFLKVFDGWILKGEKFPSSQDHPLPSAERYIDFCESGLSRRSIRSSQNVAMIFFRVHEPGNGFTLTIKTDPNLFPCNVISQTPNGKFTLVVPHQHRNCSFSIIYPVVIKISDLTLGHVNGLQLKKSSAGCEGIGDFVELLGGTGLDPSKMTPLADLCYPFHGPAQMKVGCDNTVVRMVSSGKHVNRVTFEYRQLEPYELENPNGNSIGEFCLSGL", "test": "activators of CRF receptor 2 with binding protein – uHTS hits, confirmation (AID 602473)", "type": "functional", "conditions": "read-out: EC50_Mean"}, "[2]": {"biological_target": "T2, Endoribonuclease toxin MazF (Escherichia coli K-12, UniProt P0AE70)", "T2 sequence (P0AE70 whole entry)": "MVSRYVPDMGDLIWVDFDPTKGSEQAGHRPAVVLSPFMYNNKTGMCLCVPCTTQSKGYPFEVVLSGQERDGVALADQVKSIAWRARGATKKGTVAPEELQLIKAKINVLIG", "test": "activation of MazEF endoribonuclease cleavage – biochemical, fluorescence, single-stranded RNA substrate, uHTS hits, dose response (AID 588481)", "type": "functional"}, "Troponin, cardiac muscle": {"biological_target": "Troponin, cardiac muscle (Homo sapiens, UniProt P19429+P45379+P63316)", "test": "Fluorescence-based biochemical high throughput dose response assay for activators of the calcium sensitivity of cardiac Regulated Thin Filaments (RTF). [Related pubchem assays (depositor defined):AID493008, AID493018, AID504382, AID504383]", "type": "protein-complex assay"}, "Beta Lactamase": {"biological_target": "Beta Lactamase (Pseudomonas aeruginosa, UniProt Q932Y6)", "sequence (Q932Y6 whole entry)": "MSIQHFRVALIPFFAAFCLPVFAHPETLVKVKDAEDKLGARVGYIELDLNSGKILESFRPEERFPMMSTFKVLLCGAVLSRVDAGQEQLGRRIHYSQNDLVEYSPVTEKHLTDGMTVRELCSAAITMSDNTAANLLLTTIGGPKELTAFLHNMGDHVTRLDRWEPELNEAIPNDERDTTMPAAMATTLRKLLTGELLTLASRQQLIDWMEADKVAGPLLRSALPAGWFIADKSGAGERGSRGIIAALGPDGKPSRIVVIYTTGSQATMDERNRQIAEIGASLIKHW", "test": "BLA reporter interference, concentration series – BLA reporter cells, FRET fluorescence, artefact control for TLR9-MyD88 binding inhibitor project, dose response (AID 588341)", "type": "cell-based"}, "HeLa": {"test_system": "HeLa", "test": "viability loss in HeLa cells – cell-based, 24 h, cherry-picked samples, cytotoxicity control, dose response (AID 504726)", "type": "functional", "conditions": "Homo sapiens"}, "ORF 73": {"biological_target": "ORF 73 (Human herpesvirus 8, UniProt O40947)", "sequence (O40947 whole entry)": "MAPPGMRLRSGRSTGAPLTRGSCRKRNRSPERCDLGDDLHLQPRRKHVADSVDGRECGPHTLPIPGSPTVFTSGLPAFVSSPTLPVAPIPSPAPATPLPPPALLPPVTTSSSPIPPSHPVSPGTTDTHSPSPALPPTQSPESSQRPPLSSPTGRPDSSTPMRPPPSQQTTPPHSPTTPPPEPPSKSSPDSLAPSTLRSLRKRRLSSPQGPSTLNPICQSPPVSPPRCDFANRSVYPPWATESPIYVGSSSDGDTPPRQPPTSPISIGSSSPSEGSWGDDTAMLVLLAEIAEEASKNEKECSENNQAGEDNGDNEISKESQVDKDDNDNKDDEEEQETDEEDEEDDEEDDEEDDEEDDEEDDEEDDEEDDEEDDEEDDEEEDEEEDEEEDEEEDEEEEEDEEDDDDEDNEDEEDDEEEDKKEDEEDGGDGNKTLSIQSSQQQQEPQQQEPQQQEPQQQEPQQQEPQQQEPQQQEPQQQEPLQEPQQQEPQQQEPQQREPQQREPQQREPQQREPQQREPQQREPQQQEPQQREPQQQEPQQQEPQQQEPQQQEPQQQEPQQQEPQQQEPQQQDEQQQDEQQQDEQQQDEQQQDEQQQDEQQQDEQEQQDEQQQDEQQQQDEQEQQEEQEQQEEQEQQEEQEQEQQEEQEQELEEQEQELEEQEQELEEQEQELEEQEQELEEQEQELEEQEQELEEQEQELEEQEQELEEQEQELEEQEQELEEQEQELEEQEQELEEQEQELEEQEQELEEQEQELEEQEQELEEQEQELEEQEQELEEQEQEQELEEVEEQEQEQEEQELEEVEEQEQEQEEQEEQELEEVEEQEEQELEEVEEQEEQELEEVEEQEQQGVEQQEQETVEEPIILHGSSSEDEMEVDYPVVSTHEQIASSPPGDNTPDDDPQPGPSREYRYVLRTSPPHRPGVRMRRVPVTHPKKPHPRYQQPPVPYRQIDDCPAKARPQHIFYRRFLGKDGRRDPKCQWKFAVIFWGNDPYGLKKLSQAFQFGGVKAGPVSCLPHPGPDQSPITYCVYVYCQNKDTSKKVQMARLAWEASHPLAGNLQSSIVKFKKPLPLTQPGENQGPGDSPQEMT", "test": "KSHV LANA DNA-binding disruption – biochemical, fluorescence polarization, cherry-picked samples, dose response (AID 504725);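 also: fluorescence polarization of a labeled DNA duplex reporting LANA DNA binding; potency is for inhibitors that block LANA binding to the DNA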", "design": "species or system Human gammaherpesvirus 8"}, "Keap1/Nrf2": {"biological_target": "Keap1/Nrf2 (Homo sapiens, UniProt Q14145)", "sequence (Q16236 whole entry)": "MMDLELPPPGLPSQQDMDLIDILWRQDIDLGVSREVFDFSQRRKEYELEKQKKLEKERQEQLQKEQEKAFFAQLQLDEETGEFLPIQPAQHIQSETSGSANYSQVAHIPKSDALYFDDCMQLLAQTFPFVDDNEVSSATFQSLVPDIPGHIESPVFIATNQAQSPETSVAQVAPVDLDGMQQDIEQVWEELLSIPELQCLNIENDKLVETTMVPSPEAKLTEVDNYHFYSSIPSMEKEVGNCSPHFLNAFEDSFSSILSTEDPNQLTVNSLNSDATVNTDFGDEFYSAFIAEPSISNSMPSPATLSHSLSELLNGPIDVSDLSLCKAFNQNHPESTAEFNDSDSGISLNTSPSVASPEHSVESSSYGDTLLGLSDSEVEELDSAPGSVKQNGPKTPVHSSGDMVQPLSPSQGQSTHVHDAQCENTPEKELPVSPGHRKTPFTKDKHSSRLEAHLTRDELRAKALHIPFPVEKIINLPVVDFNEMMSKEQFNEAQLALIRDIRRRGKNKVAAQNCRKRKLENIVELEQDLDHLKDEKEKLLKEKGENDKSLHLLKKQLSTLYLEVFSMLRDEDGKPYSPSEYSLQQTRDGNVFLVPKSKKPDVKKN", "sequence (Q14145 whole entry)": "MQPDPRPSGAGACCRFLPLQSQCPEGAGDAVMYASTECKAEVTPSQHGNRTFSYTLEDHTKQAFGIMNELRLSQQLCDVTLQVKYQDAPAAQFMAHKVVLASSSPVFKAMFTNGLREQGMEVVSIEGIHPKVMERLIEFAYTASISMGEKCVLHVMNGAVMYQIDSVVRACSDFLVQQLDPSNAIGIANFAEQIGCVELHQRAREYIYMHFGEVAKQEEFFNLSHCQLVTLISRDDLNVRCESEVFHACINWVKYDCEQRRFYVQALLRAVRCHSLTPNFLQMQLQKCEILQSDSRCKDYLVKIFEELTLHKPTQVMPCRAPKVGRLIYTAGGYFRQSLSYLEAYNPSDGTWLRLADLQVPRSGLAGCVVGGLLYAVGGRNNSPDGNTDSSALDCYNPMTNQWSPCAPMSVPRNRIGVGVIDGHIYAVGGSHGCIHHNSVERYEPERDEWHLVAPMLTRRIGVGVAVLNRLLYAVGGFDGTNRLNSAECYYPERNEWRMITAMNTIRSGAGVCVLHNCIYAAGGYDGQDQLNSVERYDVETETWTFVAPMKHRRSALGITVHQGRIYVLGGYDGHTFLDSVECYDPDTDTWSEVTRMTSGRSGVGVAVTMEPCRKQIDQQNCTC", "test": "disruptors of Keap1 binding to Nrf2 peptide – biochemical, fluorescence polarization, cherry-picked samples, dose response (AID 588683)"}, "Ephrin type-A receptor 4": {"biological_target": "Ephrin type-A receptor 4 (Mus musculus, UniProt Q03137)", "sequence (Q03137 whole entry)": "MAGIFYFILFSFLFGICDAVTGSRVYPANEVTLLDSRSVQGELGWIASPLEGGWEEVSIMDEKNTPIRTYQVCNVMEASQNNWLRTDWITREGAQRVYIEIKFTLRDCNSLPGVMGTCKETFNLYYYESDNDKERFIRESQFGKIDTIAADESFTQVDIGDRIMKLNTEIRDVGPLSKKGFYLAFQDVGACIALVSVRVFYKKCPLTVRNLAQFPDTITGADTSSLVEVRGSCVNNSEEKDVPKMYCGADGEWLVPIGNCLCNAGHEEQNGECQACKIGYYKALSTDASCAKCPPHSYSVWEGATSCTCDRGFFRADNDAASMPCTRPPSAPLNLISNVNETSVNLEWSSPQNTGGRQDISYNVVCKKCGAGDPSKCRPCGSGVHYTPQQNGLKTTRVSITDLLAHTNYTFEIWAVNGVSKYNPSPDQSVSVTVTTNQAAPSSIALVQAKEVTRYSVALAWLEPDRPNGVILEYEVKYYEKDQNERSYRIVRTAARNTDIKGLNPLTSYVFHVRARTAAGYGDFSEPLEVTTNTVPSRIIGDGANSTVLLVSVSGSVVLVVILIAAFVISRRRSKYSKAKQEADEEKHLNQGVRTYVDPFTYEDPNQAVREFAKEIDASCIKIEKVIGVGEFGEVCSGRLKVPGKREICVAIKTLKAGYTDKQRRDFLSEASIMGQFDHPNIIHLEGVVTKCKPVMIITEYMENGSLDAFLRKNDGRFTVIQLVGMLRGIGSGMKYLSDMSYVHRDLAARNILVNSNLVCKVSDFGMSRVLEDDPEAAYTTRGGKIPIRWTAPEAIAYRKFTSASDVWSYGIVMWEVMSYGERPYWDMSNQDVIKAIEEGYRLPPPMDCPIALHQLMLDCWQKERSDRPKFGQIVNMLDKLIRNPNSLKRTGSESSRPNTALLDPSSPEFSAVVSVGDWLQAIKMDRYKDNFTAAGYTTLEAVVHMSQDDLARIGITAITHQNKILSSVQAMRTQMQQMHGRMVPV", "test": "EphA4 ligand-binding antagonists – biochemical, colorimetric, mouse EphA4, primary screen (AID 689)", "type": "functional"}, "CHO": {"test_system": "CHO", "test": "CHO cell viability loss, potency – luminescence, cytotoxicity control for TLR9-MyD88 binding inhibitor project, dose response (AID 588339);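 also: CHO cells stably coexpressing TLR9 and MyD88 fusions from primary screen; compound exposure lasted 48 hours before viability readout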", "type": "functional, cell-based, hamster", "conditions": "Cricetulus griseus"}, "[3]": {"biological_target": "T2, Endoribonuclease toxin MazF", "test": "substrate-only fluorescence increase artefacts – biochemical, single-stranded RNase substrate, counter-screen for MazEF activator project, dose response (AID 588502)", "type": "functional"}},
  "note": "Calls of active or inactive are those of the source.",
  "data": [
    {"smiles": "CCn1nc(-c2ccccc2)c2nc3ccccc3nc21", "values": [
      {"measurement": "EC50", "setting": "[1]", "value": "6.66 µM (active)"},
      {"measurement": "EC50", "setting": "[2]", "value": "> 99 µM (inactive)"},
      {"measurement": "EC50", "setting": "Troponin, cardiac muscle", "value": "5.55 µM (active)"},
      {"measurement": "IC50", "setting": "Beta Lactamase", "value": "5.36 µM (active)"},
      {"measurement": "AC50", "setting": "HeLa", "value": "96.5 µM (active)"},
      {"measurement": "AC50", "setting": "ORF 73", "value": "30.9 µM (active)"},
      {"measurement": "AC50", "setting": "Keap1/Nrf2", "value": "39.5 µM (active)"},
      {"measurement": "IC50", "setting": "Ephrin type-A receptor 4", "value": "5.45 µM (active)"},
      {"measurement": "IC50", "setting": "CHO", "value": "> 49.7 µM (inactive)"},
      {"measurement": "EC50", "setting": "[3]", "value": "84 µM (inactive)"}
    ]}
  ]
}
